Laboratory results published in patent publication US12522594B2, “2-heteroaryl-3-oxo-2,3-dihydropyridazine-4-carboxamides for the treatment of cancer” (Deutsches Krebsforschungszentrum, priority 2017, dated 2026).

Legend:
AHR [1] = target: T1, AHR (Homo sapiens, UniProt P35869); test: In vitro assay 1: antagonism in human cell line (transactivation assay, U87 cells prestimulated with kynurenic acid, DRE firefly luciferase reporter); format: cell-based; parameters: host or cells: U87 glioblastoma cells, stably transfected with DRE firefly luciferase and renilla reporter constructs; settings: 150 uM kynurenic acid, 20 hours, read-out: Assay 1: AHR-luc Hum Antagonism IC50
T1 sequence (P35869 11-848): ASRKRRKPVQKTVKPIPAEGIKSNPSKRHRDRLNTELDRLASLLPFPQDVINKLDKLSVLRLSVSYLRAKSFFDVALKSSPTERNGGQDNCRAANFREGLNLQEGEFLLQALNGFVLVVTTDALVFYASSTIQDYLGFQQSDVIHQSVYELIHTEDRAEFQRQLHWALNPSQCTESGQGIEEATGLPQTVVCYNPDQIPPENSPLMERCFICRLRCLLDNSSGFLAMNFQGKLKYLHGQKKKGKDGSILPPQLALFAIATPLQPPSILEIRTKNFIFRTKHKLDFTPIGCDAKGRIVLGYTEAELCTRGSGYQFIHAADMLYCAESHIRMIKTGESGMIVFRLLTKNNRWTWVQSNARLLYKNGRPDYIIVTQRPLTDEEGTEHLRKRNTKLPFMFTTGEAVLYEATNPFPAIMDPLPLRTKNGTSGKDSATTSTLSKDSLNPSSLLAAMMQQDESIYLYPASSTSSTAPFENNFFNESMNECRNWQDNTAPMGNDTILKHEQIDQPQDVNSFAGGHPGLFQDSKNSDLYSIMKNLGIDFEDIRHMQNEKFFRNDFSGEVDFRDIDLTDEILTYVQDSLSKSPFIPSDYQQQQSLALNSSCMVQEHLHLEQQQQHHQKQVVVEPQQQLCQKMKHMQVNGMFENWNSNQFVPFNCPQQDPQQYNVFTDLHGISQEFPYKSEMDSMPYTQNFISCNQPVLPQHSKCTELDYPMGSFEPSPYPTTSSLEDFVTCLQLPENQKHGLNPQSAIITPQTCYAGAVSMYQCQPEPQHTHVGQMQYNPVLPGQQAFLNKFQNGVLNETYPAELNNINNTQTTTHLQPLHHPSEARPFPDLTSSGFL
In short: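 U87 glioblastoma cells with endogenous AHR, stably carrying a DRE-driven firefly luciferase reporter and a constitutive renilla reporter. Cells prestimulated with the AHR agonist kynurenic acid before compound addition; data normalized to positive and negative controls.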

AHR [2] = target: T1, AHR; test: In vitro assay 2: agonism in human cell line (transactivation assay, U87 cells, DRE firefly luciferase reporter); format: cell-based; parameters: host or cells: U87 glioblastoma cells, stably transfected with DRE firefly luciferase and renilla reporter constructs; settings: no kynurenic acid, 20 hours, read-out: Assay 2: AHR-luc Hum Agonism IC50
In short: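 U87 glioblastoma cells with endogenous AHR, stably carrying DRE-driven firefly luciferase and constitutive renilla reporters. 300 uM kynurenic acid served as positive activation control; data normalized to positive and negative controls.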

| SMILES | IC50 (AHR [1]) | IC50 (AHR [2]) |
| --- | --- | --- |
| C[C@H](NC(=O)c1cc(-c2ccc(C(F)(F)F)cc2)nn(-c2cnn(C(F)F)c2)c1=O)C(C)(C)O [Example 228, 2-[1-(Difluoromethyl)-1H-pyrazol-4-yl]-N-[(2S)-3-hydroxy-3-methylbutan-2-yl]-3-oxo-6-[4-(trifluoromethyl)phenyl]-2,3-dihydropyridazine-4-carboxamide] | 13.3 nM | > 20000 nM |
| C[C@H](NC(=O)c1cc(-c2ccc(C(F)(F)F)nc2)nn(-c2cnsc2)c1=O)C(C)(C)O [Example 233, N-[(2S)-3-Hydroxy-3-methylbutan-2-yl]-3-oxo-2-(1,2-thiazol-4-yl)-6-[6-(trifluoromethyl)pyridin-3-yl]-2,3-dihydropyridazine-4-carboxamide] | 8.23 nM | 17200 nM |
| O=C(NC[C@H](O)C(F)(F)F)c1cc(-c2ccc(Cl)cc2)nn(-c2cnoc2)c1=O [Example 235, 6-(4-Chlorophenyl)-2-(1,2-oxazol-4-yl)-3-oxo-N-[(2S)-3,3,3-trifluoro-2-hydroxypropyl]-2,3-dihydropyridazine-4-carboxamide] | 8.87 nM | > 20000 nM |
| O=C(N[C@H](CO)C(F)(F)F)c1cc(-c2ccc(Cl)cc2)nn(-c2cnn(C(F)F)c2)c1=O [Example 236, 6-(4-Chlorophenyl)-2-[1-(difluoromethyl)-1H-pyrazol-4-yl]-3-oxo-N-[(2R)-1,1,1-trifluoro-3-hydroxypropan-2-yl]-2,3-dihydropyridazine-4-carboxamide] | 9.03 nM | > 20000 nM |
| Cn1cc(-n2nc(-c3ccc(C(F)(F)F)cc3)cc(C(=O)N[C@@H]3CCC[C@@H]3O)c2=O)cn1 [Example 239, N-[(1R,2S)-2-Hydroxycyclopentyl]-2-(1-methyl-1H-pyrazol-4-yl)-3-oxo-6-[4-(trifluoromethyl)phenyl]-2,3-dihydropyridazine-4-carboxamide] | 10 nM | > 20000 nM |
| Cc1cc(-n2nc(-c3ccc(Cl)cc3)cc(C(=O)N[C@@H](C)CO)c2=O)cs1 [Example 242, 6-(4-Chlorophenyl)-N-[(2S)-1-hydroxypropan-2-yl]-2-(5-methyl-3-thienyl)-3-oxo-2,3-dihydropyridazine-4-carboxamide] | 11.1 nM | > 20000 nM |
| C[C@@H](CO)NC(=O)c1cc(-c2ccc(Cl)cc2)nn(-c2csc(Cl)c2)c1=O [Example 243, 6-(4-Chlorophenyl)-2-(5-chloro-3-thienyl)-N-[(2S)-1-hydroxypropan-2-yl]-3-oxo-2,3-dihydropyridazine-4-carboxamide] | 11.8 nM | > 20000 nM |
| C[C@@H](CO)NC(=O)c1cc(-c2ccc(C(F)(F)F)cc2)nn(-c2cn[nH]c2)c1=O [Example 244, N-[(2S)-1-Hydroxypropan-2-yl]-3-oxo-2-(1H-pyrazol-4-yl)-6-[4-(trifluoromethyl)phenyl]-2,3-dihydropyridazine-4-carboxamide] | 11.9 nM | > 20000 nM |
| Cn1cc(-n2nc(-c3ccc(C(F)(F)F)cc3)cc(C(=O)NC[C@H](O)CF)c2=O)cn1 [Example 245, N-[(2S)-3-Fluoro-2-hydroxypropyl]-2-(1-methyl-1H-pyrazol-4-yl)-3-oxo-6-[4-(trifluoromethyl)phenyl]-2,3-dihydropyridazine-4-carboxamide] | 12.8 nM | > 20000 nM |
| Cc1cc(-n2nc(-c3ccc(Cl)cc3)cc(C(=O)NCC(C)(C)O)c2=O)cs1 [Example 246, 6-(4-Chlorophenyl)-N-(2-hydroxy-2-methylpropyl)-2-(5-methyl-3-thienyl)-3-oxo-2,3-dihydropyridazine-4-carboxamide] | 13.2 nM | > 20000 nM |
| C[C@@H](CO)NC(=O)c1cc(-c2ccc(C(F)(F)F)nc2)nn(-c2cnsc2)c1=O [Example 251, N-[(2S)-1-Hydroxypropan-2-yl]-3-oxo-2-(1,2-thiazol-4-yl)-6-[6-(trifluoromethyl)pyridin-3-yl]-2,3-dihydropyridazine-4-carboxamide] | 17.9 nM | > 20000 nM |
| C[C@@H](CO)NC(=O)c1cc(-c2ccc(Cl)cc2)nn(-c2cnoc2)c1=O [Example 253, 6-(4-Chlorophenyl)-N-[(2S)-1-hydroxypropan-2-yl]-2-(1,2-oxazol-4-yl)-3-oxo-2,3-dihydropyridazine-4-carboxamide] | 19.4 nM | > 20000 nM |
| N#C[C@@H](CO)NC(=O)c1cc(-c2ccc(Cl)cc2)nn(-c2cccnc2)c1=O [Example 254, 6-(4-Chlorophenyl)-N-[(1S)-1-cyano-2-hydroxyethyl]-3-oxo-2-(pyridin-3-yl)-2,3-dihydropyridazine-4-carboxamide] | 22.9 nM | > 20000 nM |
| O=C(NC[C@H](O)CF)c1cc(-c2ccc(C(F)(F)F)cc2)nn(-c2cccnc2)c1=O [Example 255, N-[(2S)-3-Fluoro-2-hydroxypropyl]-3-oxo-2-(pyridin-3-yl)-6-[4-(trifluoromethyl)phenyl]-2,3-dihydropyridazine-4-carboxamide] | 25.8 nM | > 20000 nM |
| O=C(NC[C@H](O)C(F)(F)F)c1cc(-c2ccc(Cl)cc2)nn(-c2cnn(C(F)F)c2)c1=O [Example 256, 6-(4-Chlorophenyl)-2-[1-(difluoromethyl)-1H-pyrazol-4-yl]-3-oxo-N-[(2S)-3,3,3-trifluoro-2-hydroxypropyl]-2,3-dihydropyridazine-4-carboxamide] | 26 nM | > 20000 nM |
| COC[C@@H](CO)NC(=O)c1cc(-c2ccc(C(F)(F)F)cc2)nn(-c2cccnc2)c1=O [Example 257, N-[(2R)-1-Hydroxy-3-methoxypropan-2-yl]-3-oxo-2-(pyridin-3-yl)-6-[4-(trifluoromethyl)phenyl]-2,3-dihydropyridazine-4-carboxamide] | 26.3 nM | > 20000 nM |
| O=C(N[C@H](CO)C1CC1)c1cc(-c2ccc(Cl)cc2)nn(-c2cncc(F)c2)c1=O [Example 259, 6-(4-Chlorophenyl)-N-[(1S)-1-cyclopropyl-2-hydroxyethyl]-2-(5-fluoropyridin-3-yl)-3-oxo-2,3-dihydropyridazine-4-carboxamide] | 28.1 nM | > 20000 nM |
| C[C@@H](CO)NC(=O)c1cc(-c2ccc(C(F)(F)F)cc2)nn(-c2cnn(C(F)F)c2)c1=O [Example 261, 2-[1-(Difluoromethyl)-1H-pyrazol-4-yl]-N-[(2S)-1-hydroxypropan-2-yl]-3-oxo-6-[4-(trifluoromethyl)phenyl]-2,3-dihydropyridazine-4-carboxamide] | 33 nM | > 20000 nM |
| CC(C)(O)CNC(=O)c1cc(-c2ccc(C(F)(F)F)cc2)nn(-c2cnn(C(F)F)c2)c1=O [Example 262, 2-[1-(Difluoromethyl)-1H-pyrazol-4-yl]-N-(2-hydroxy-2-methylpropyl)-3-oxo-6-[4-(trifluoromethyl)phenyl]-2,3-dihydropyridazine-4-carboxamide] | 41.2 nM | > 20000 nM |
| O=C(NCC1(O)CC1)c1cc(-c2ccc(Cl)cc2)nn(-c2cccnc2)c1=O [Example 263, 6-(4-Chlorophenyl)-N-[(1-hydroxycyclopropyl)methyl]-3-oxo-2-(pyridin-3-yl)-2,3-dihydropyridazine-4-carboxamide] | 41.9 nM | > 20000 nM |
| C[C@@H](NC(=O)c1cc(-c2ccc(Cl)cc2)nn(-c2cncnc2)c1=O)C(C)(C)O [Example 265, 6-(4-Chlorophenyl)-N-[(2R)-3-hydroxy-3-methylbutan-2-yl]-3-oxo-2-(pyrimidin-5-yl)-2,3-dihydropyridazine-4-carboxamide] | 48.8 nM | > 20000 nM |
| CC(C)(O)CNC(=O)c1cc(-c2ccc(C(F)(F)F)cc2)nn(-c2cn[nH]c2)c1=O [Example 266, N-(2-Hydroxy-2-methylpropyl)-3-oxo-2-(1H-pyrazol-4-yl)-6-[4-(trifluoromethyl)phenyl]-2,3-dihydropyridazine-4-carboxamide] | 56.8 nM | > 20000 nM |
| COC(=O)[C@@H](CO)NC(=O)c1cc(-c2ccc(Cl)cc2)nn(-c2cnn(C)c2)c1=O [Example 267, Methyl N-{[6-(4-chlorophenyl)-2-(1-methyl-1H-pyrazol-4-yl)-3-oxo-2,3-dihydropyridazine-4-yl]carbonyl}-D-serinate] | 56.9 nM | > 20000 nM |
